Reference: patent US20240246905A1 (University of Leicester, priority 2021, published 2024)
Converted amounts (≈) assume the structure as drawn.

Key:
MRSA 252 [1] = assay: MIC, broth micro-dilution; assay type: cell-based, Staphylococcus aureus; settings: Staphylococcus aureus, read-out: MIC
In short: (§1)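 S. aureus cultures grown 18 h in TSB were used to inoculate twofold antibiotic series in TSB at 5×10^5 CFU/mL, per CLSI guidelines. Growth curves read by optical density at 12-min intervals for 18 h at 37 °C were fitted sigmoidally to calculate MIC.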

MSSA 476 [2] = assay: MIC, broth micro-dilution; assay type: cell-based, Staphylococcus aureus; settings: Staphylococcus aureus, MSSA, read-out: MIC
In short: as §1

MRSA 252 [3] = assay: Disc diffusion (Kirby-Bauer), zone of inhibition; assay type: cell-based, Staphylococcus aureus; settings: Staphylococcus aureus, 500 μg/mL, '/' = no zone, read-out: Zone of inhibition
In short: (§2)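 Zones of inhibition recorded after 24 h at 37 °C on Mueller-Hinton agar. Agar was inoculated with 1 in 200 diluted 18 h broth cultures, and discs carried 50 μL of antibiotic. Method follows CLSI 2017 disc diffusion.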

MSSA 476 [4] = assay: Disc diffusion (Kirby-Bauer), zone of inhibition; assay type: cell-based, Staphylococcus aureus; settings: Staphylococcus aureus, 500 μg/mL, '/' = no zone, read-out: Zone of inhibition
In short: as §2

Escherichia coli DH5α = assay: Disc diffusion (Kirby-Bauer), zone of inhibition; assay type: cell-based; settings: Escherichia coli DH5α; 500 μg/mL; '/' = no zone; read-out: Zone of inhibition
In short: as §2

[5] = tested on: Staphylococcus aureus 15981; assay: Disc diffusion (Kirby-Bauer), zone of inhibition; assay type: cell-based; settings: Staphylococcus aureus 15981; 500 μg/mL; '/' = no zone; read-out: Zone of inhibition
In short: as §2

[6] = tested on: various Staphylococcus aureus strains; assay: Disc diffusion, Staphylococcus aureus strain study; assay type: cell-based; settings: Staphylococcus aureus, 500 μg/mL
In short: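 Kirby-Bauer disc diffusion on Mueller-Hinton agar spread with 1:200 dilution of overnight S. aureus cultures (TSB, 37 °C). Discs loaded with 50 μL of compound at 500 μg/mL; zone of inhibition recorded after 24 h at 37 °C.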

HEK293 cells = assay: Cytotoxicity assay, resazurin (CO-ADD)
In short: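 HEK293 cells in DMEM with 10% FBS were exposed to compounds at a single concentration of 32 μg/mL for 20 h at 37° C, 5% CO2. Viability read by resazurin fluorescence (2.3 μg/mL final, 3 h; F560/590). CC50 from sigmoidal dose-response fitting.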

red blood cells = assay: Hemolysis assay (CO-ADD); assay type: cell-based; settings: 32 μg/mL highest concentration tested
Text: A problem often encountered by emerging drugs is hemolysis, also known as drug-induced immune hemolytic anemia.

Molecule `[C-]#[N+]C=Cc1ccc(O)c(Br)c1` [Compound 14] has an MIC (MRSA 252 [1]) of 44 µg/mL (≈ 196 µM), an MIC (MSSA 476 [2]) of 242 µg/mL (≈ 1080 µM) and a zone of inhibition at 500 µg/mL (MRSA 252 [3]) of 24 mm. It also gave a zone of inhibition at 500 µg/mL (MSSA 476 [4]) of 24 mm, a zone of inhibition at 500 µg/mL (Escherichia coli DH5α) of 26 mm and a zone of inhibition at 500 µg/mL [5] of 28 mm. For the same molecule, the zone of inhibition at 500 µg/mL ([6]; strain ASARM 61) was 22 mm, the zone of inhibition at 500 µg/mL ([6]; strain ASARM 70) was 20 mm and the zone of inhibition at 500 µg/mL ([6]; strain ASARM 71) was 22 mm. It also gave a zone of inhibition at 500 µg/mL ([6]; strain ASARM 72) of 20 mm, a zone of inhibition at 500 µg/mL ([6]; strain ASARM 73) of 20 mm and a zone of inhibition at 500 µg/mL ([6]; strain ASARM 75) of 20 mm. The zone of inhibition at 500 µg/mL ([6]; strain ASARM 76) was 22 mm, the zone of inhibition at 500 µg/mL ([6]; strain ASARM 77) was 22 mm and the zone of inhibition at 500 µg/mL ([6]; strain ASARM 79) was 24 mm. It also gave a zone of inhibition at 500 µg/mL ([6]; strain ASARM 80) of 25 mm, a zone of inhibition at 500 µg/mL ([6]; strain EOE 3) of 20 mm and a zone of inhibition at 500 µg/mL ([6]; strain EOE 23) of 22 mm. It also gave a zone of inhibition at 500 µg/mL ([6]; strain EOE 30) of 22 mm, a zone of inhibition at 500 µg/mL ([6]; strain EOE 35) of 18 mm and a zone of inhibition at 500 µg/mL ([6]; strain EOE 41) of 20 mm. For the same molecule, the zone of inhibition at 500 µg/mL ([6]; strain EOE 42) was 18 mm, the zone of inhibition at 500 µg/mL ([6]; strain EOE 45) was 20 mm and the zone of inhibition at 500 µg/mL ([6]; strain EOE 52) was 25 mm. For the same molecule, the zone of inhibition at 500 µg/mL ([6]; strain EOE 54) was 19 mm, the zone of inhibition at 500 µg/mL ([6]; strain EOE 57) was 20 mm and the zone of inhibition at 500 µg/mL ([6]; strain S139_7_7) was 20 mm. For the same molecule, the zone of inhibition at 500 µg/mL ([6]; strain S197_1_1) was 25 mm, the zone of inhibition at 500 µg/mL ([6]; strain S197_1_8) was 22 mm and the zone of inhibition at 500 µg/mL ([6]; strain S197_1_9) was 22 mm. For the same molecule, the zone of inhibition at 500 µg/mL ([6]; strain S197_1_10) was 22 mm, the zone of inhibition at 500 µg/mL ([6]; strain S295_1_1) was 22 mm and the zone of inhibition at 500 µg/mL ([6]; strain S295_1_2) was 14 mm. For the same molecule, the zone of inhibition at 500 µg/mL ([6]; strain S295_1_3) was 20 mm, the zone of inhibition at 500 µg/mL ([6]; strain S364_5_11) was 24 mm and the zone of inhibition at 500 µg/mL ([6]; strain S364_5_12) was 24 mm. The zone of inhibition at 500 µg/mL ([6]; strain Sa_TPS 3026) was 16 mm, the zone of inhibition at 500 µg/mL ([6]; strain Sa_TPS 3072) was 18 mm and the zone of inhibition at 500 µg/mL ([6]; strain Sa_TPS 3092) was 24 mm. For the same molecule, the zone of inhibition at 500 µg/mL ([6]; strain Sa_TPS 3097) was 18 mm, the zone of inhibition at 500 µg/mL ([6]; strain Sa_TPS 3103) was 26 mm and the zone of inhibition at 500 µg/mL ([6]; strain Sa_TPS 3104) was 22 mm. The zone of inhibition at 500 µg/mL ([6]; strain Sa_TPS 3106) was 20 mm, the zone of inhibition at 500 µg/mL ([6]; strain Sa_TPS 3118) was 18 mm and the zone of inhibition at 500 µg/mL ([6]; strain Sa_TPS 3133) was 18 mm. The zone of inhibition at 500 µg/mL ([6]; strain Sa_TPS 3134) was 18 mm, the zone of inhibition at 500 µg/mL ([6]; strain USFL 008) was 17 mm and the zone of inhibition at 500 µg/mL ([6]; strain USFL 009) was 16 mm. It also gave a zone of inhibition at 500 µg/mL ([6]; strain USFL 012) of 20 mm, a zone of inhibition at 500 µg/mL ([6]; strain USFL 016) of 18 mm and a zone of inhibition at 500 µg/mL ([6]; strain USFL 018) of 18 mm. For the same molecule, the zone of inhibition at 500 µg/mL ([6]; strain USFL 020) was 16 mm, the zone of inhibition at 500 µg/mL ([6]; strain USFL 021) was 18 mm and the zone of inhibition at 500 µg/mL ([6]; strain USFL 028) was 18 mm. The zone of inhibition at 500 µg/mL ([6]; strain USFL 035) was 19 mm, the zone of inhibition at 500 µg/mL ([6]; strain USFL 054) was 18 mm and the “Concentration toxic to HEK 293 cells” value (HEK293 cells; HEK 293) was greater than 32000 ng/mL. For the same molecule, the “toxicity towards the HEK293 cell line (in words)” value (HEK293 cells; set concentration of 32 μg/mL) was “no toxicity” and the “Hemolytic activity (HC10)” value (red blood cells) was greater than 32 µg/mL.
